From ChEMBL document CHEMBL5729088, “Thienodiazepine derivatives and application thereof” (2022) come the findings set out here.

Molecules are shown by their SMILES. pIC50: −log10 of the molar value.

The target in experiment [1] is T1, Bromodomain-containing protein 4 (Homo sapiens, UniProt O60885). The experiment can be described thus: (§1) BRD4 Biochemical Activity Test: The experiment plate was a plate that contained a gradient concentration of the compound and a corresponding DMSO solution and was prepared with ECHO before the experiment:a) The experiment plate was taken out, and 5 μL/well of “solution A” (protein solution) was added to columns 2-23 of the experiment plate, then 5 μL/well of 1× assay buffer was added to columns 1 and 24 of the experiment plate, and columns 1 and 24 were used as Min control in the experiment system;b) Centrifugation at 1000 rpm was carried out for 30 seconds;c) The plate was incubated at 23° C. for 20 minutes;d) After 20 minutes of incubation, 5 μL/well of “solution B” (polypeptide solution) was added to columns 1-24 of the experiment plate;e) Centrifugation at 1000 rpm was carried out for 30 seconds;f) The plate was incubated at 23° C. for 20 minutes;g) After 20 minutes of incubation, 5 μL/well of “solution C” (test reagent solution) was added to columns 1-24 of the experiment plate;h) Centrifugation at 1000 rpm was carried out for 30 seconds;i) The plate was incubated at 23° C. for 40 minutes;j) The experiment plate was placed on EnVision to read the plate.

Experiment [2] concerns the target T1, Bromodomain-containing protein 4. The description is as §1. The source holds these as a separate data set.

On to `Cc1sc2c(c1C)C(c1ccc(Cl)cc1)=N[C@@H](CC(=O)Nc1ccc3c(c1)CS(=O)(=O)C3)c1nnc(C)n1-2`, for which the pIC50 in experiment [1] was 7.31; in experiment [2] it was 7.85.

Turning to `Cc1sc2c(c1C)C(c1ccc(Cl)cc1)=N[C@@H](CC(=O)Nc1ccc(O)c3c1COC3)c1nnc(C)n1-2`, the values for the pIC50 in experiment [1] and in experiment [2] were 7.00 and 7.68, respectively.

As a reminder, the pIC50 is the negative decadic logarithm of the IC50, by convention in mol/L. High values mean a small IC50, low ones a large IC50.
